From article PMC2632761 (Journal of biomolecular screening, 2009)
Where two headings read alike, the source gives them in different places.

What was measured:
hTRα = target: T1, hTRα (Homo sapiens, UniProt P10827); assay: TRα SPA ligand competition binding assay
T1 sequence (P10827 148-410 isoform P10827-2 limits assumed): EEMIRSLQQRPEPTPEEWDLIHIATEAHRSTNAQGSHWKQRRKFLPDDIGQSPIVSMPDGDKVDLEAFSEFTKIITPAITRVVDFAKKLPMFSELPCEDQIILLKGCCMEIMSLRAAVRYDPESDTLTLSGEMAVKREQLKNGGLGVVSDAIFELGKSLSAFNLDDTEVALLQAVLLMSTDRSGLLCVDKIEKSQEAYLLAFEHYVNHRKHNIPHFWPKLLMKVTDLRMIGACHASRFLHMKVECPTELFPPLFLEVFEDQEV

hTRβ = target: T2, hTRβ (Homo sapiens, UniProt P10828); assay: TRβ SPA ligand competition binding assay
T2 sequence (P10828 217-461 limits assumed): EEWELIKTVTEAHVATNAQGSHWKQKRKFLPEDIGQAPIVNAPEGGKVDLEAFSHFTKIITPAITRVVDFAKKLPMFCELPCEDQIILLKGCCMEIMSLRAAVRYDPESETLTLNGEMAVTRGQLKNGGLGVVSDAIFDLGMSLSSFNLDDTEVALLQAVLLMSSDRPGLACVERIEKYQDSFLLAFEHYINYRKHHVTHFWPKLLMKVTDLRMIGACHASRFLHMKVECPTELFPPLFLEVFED

hPPARγ = target: T3, hPPARγ (Homo sapiens, UniProt P37231); assay: PPARγ SPA ligand competition binding assay
T3 sequence (P37231 238-503 limits assumed): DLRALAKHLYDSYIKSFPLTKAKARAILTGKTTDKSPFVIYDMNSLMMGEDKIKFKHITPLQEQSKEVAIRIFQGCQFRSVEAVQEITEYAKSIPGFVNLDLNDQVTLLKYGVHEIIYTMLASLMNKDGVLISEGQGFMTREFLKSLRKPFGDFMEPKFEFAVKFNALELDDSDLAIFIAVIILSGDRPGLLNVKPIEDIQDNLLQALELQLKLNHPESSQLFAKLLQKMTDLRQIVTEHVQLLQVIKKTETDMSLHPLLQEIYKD

[1] = target: T4, AR-LBD (androgen receptor) (Pan troglodytes, UniProt O97775); assay: AR SPA ligand competition binding assay
T4 sequence (O97775 655-911 limits assumed): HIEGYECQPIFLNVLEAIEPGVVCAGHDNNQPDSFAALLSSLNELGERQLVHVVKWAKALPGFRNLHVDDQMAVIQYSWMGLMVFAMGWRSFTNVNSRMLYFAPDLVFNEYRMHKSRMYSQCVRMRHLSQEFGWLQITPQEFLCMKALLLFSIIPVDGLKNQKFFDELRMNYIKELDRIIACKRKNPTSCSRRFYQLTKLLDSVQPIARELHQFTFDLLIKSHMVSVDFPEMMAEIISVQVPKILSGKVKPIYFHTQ

O=C(O)c1cc(I)c(Oc2ccc(O)c(I)c2)c(I)c1 [T3Bz, 4-(4'-Hydroxy-3'-iodophenoxy)-3,5-diiodo-benzoic acid]
IC50 (hTRα): 12 ± 2 µM
IC50 (hTRβ): 10 ± 4 µM

CCCCC/C=C\C/C=C\C/C=C\C/C=C\CCCC(=O)O [Arachidonic Acid]
IC50 (hPPARγ): 4.2 ± 0.53 µM

CCCCC/C=C\C/C=C\CCCCCCCC(=O)O [Lineolic Acid]
IC50 (hPPARγ): 3.8 ± 0.49 µM

CC(C)(O)C(=O)Nc1ccc([N+](=O)[O-])c(C(F)(F)F)c1 [Hydroxyflutamide]
IC50 [1]: 33 ± 8 µM

O=C(O)Cc1cc(I)c(Oc2cc(I)c(O)c(I)c2)c(I)c1 [T4Ac, 3,3’,5,5’-tetraiodothyroacetic acid]
IC50 (hTRα; read-out: IC50 TRα, SPA competition, 1 nM [125I]-T3): 10 ± 2 µM
IC50 (hTRβ; read-out: IC50 TRβ, SPA competition, 1 nM [125I]-T3): 5 ± 2 µM

O=C(Nc1ccccc1)c1cc([N+](=O)[O-])ccc1Cl [GW9662]
IC50 (hPPARγ; read-out: IC50 PPARγ, SPA competition, 40 nM [3H]-Rosiglitazone): 0.23 ± 0.02 µM

C[C@]1(O)CC[C@H]2[C@@H]3CCC4=CC(=O)CCC4=C3C=C[C@@]21C [Methyltrienolone (R1881), Methyltrienolone]
IC50 ([1]; IC50 AR): 0.11 ± 0.02 µM
